Measurements taken from publication PMC2114737 (The Journal of Cell Biology, 1987).

Experiments:
[1] = molecular target: T1, N-formyl peptide receptor (Homo sapiens, UniProt P21462); format: binding; settings: Table II; fast microsomes, unstimulated; mean, SD, n = 5
T1 sequence (P21462 1-350): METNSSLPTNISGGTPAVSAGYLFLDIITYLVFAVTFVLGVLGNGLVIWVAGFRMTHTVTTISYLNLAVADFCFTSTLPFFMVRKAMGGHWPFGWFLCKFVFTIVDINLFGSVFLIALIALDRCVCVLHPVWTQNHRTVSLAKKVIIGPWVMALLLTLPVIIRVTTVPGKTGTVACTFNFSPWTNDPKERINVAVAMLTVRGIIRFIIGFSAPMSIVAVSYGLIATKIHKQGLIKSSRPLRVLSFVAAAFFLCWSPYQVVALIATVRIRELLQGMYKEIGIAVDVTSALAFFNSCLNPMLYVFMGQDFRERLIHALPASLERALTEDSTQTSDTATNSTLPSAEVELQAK

[2] = molecular target: T1, N-formyl peptide receptor; experiment: Effect of guanine nucleotides on receptor affinity states of fast membranes; format: binding

Compound: N-formyl-Nle-Leu-Phe-Nle-Tyr- Lys-fluorescein [Fl-peptide]
- Percentage of receptor associated with State B [1]: 47%

Compound: Nc1nc2c(ncn2[C@@H]2O[C@H](COP(=O)(O)OP(=O)(O)OP(O)(O)=S)[C@@H](O)[C@H]2O)c(=O)[nH]1 [GTP-y-S]
- Effect on state C receptor ([2]; fast membranes from Fl-peptide-stimulated cells, GTP-γ-S, listed as GTP-gamma-S): insensitive

Compound: Nc1nc2c(ncn2[C@@H]2O[C@H](COP(=O)(O)OP(=O)(O)OP(=O)(O)O)[C@@H](O)[C@H]2O)c(=O)[nH]1 [GTP]
- Effect on state B dissociation rate / conversion to state A ([2]; membranes from unstimulated cells, nucleotide 10 μM where stated): converted to the fastest ligand-dissociation state (state A)
